# Reference: PubChem BioAssay (NCI)
#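 Dose response: 5 concentrations. Exposure: 48 h. Format: 96-well plates. Endpoint: linear interpolation; highest concentration if not reached. Abbreviation: GI50, concentration required for 50% inhibition of growth. TGI denotes the concentration required for complete inhibition of growth.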
# Columns and labels:
# Test in all cases: NCI anticancer screen, dose series, 48 h
# SNB-75 CNS = tested on: SNB-75 CNS
# OVCAR-3 ovarian = tested on: OVCAR-3 ovarian
# SR leukemia = tested on: SR leukemia
# LOX IMVI melanoma = tested on: LOX IMVI melanoma
# SN12C renal = tested on: SN12C renal
# K-562 leukemia = tested on: K-562 leukemia
# MALME-3M melanoma = tested on: MALME-3M melanoma
# A549 NSCLC = tested on: A549 NSCLC
# UACC-62 melanoma = tested on: UACC-62 melanoma
# OVCAR-5 ovarian = tested on: OVCAR-5 ovarian
SMILES,GI50 (SNB-75 CNS) [µM],TGI (SNB-75 CNS) [µM],GI50 (OVCAR-3 ovarian) [µM],TGI (OVCAR-3 ovarian) [µM],GI50 (SR leukemia) [µM],TGI (SR leukemia) [µM],GI50 (LOX IMVI melanoma) [µM],TGI (LOX IMVI melanoma) [µM],GI50 (SN12C renal) [µM],TGI (SN12C renal) [µM],GI50 (K-562 leukemia) [µM],TGI (K-562 leukemia) [µM],GI50 (MALME-3M melanoma) [µM],TGI (MALME-3M melanoma) [µM],GI50 (A549 NSCLC) [µM],TGI (A549 NSCLC) [µM],GI50 (UACC-62 melanoma) [µM],TGI (UACC-62 melanoma) [µM],GI50 (OVCAR-5 ovarian) [µM],TGI (OVCAR-5 ovarian) [µM]
NS(=O)(=O)c1cccc(N=Cc2c(O)[nH]c3ccccc23)c1,> 25,> 25,> 25,> 25,> 25,> 25,> 25,> 25,> 25,> 25,> 25,> 25,> 25,> 25,> 25,> 25,> 25,> 25,> 25,> 25
c1cn2cc(-c3ccc4cn[nH]c4c3)nc(Nc3ccc(N4CCOCC4)cc3)c2n1,1.46,13.3,18.4,40.2,6.66,27.5,17.8,> 100,17,41.2,> 100,> 100,10.4,27.3,10.4,28.8,11.8,37.8,,
CC1=CCC23C(C1)OC(Br)(C=CC2(C)O)C3(C)C (centres undefined),,> 100,,,,,,> 100,,> 100,,> 100,,> 100,,> 100,,> 100,,> 100
CCN1c2ccccc2C(Cl)(c2ccc(N(C)C)cc2)c2ccccc21,5.16,18.2,2.93,8.53,,,3.67,13.6,4.88,19.2,3.1,25.7,3.33,12.4,4.34,24.5,11.6,42.1,17.7,34.9
CCOC(=O)C1SC(=Nc2ccc(Cl)c(Cl)c2)N=C1C (centres undefined),,58.9,,60.6,,,,63.9,,53,,32.5,,> 100,,> 100,,> 100,,> 100
Fc1ccc(C2SCc3nc4ccccc4n32)cc1 (centres undefined),,9.55,,77.6,,96.6,,> 100,,> 100,,> 100,,73.1,,> 100,,,,99.4
CSc1ccc2c3c(n(C[C@H](O)CO)c(=O)c2c1)-c1ccccc1C3=O,12.5,> 100,4.33,41.9,,,,,1.94,13.6,1.72,> 100,4.3,22,1.04,3.47,1.39,4.64,3.1,10.6
O=C(OCC1CO1)c1cccs1 (centres undefined),,> 100,,> 100,,,,> 100,,> 100,,> 100,,> 100,,> 100,,> 100,,> 100
COc1ccc(-n2c3c(c4c(CN5CCOCC5)c(O)ccc42)CCc2ccccc2C3=O)cc1,,,25.4,> 100,,,67.3,> 100,43.3,> 100,17.8,> 100,> 100,> 100,> 100,> 100,> 100,> 100,34.8,> 100
CO[C@@H]1CC(=O)C2(CC(=O)O[C@@H]2/C=C(\C)CCC=C(C)C)C[C@@H]1O (some centres undefined),1.2,3.66,0.839,2.28,,,0.634,1.57,0.705,1.64,0.829,> 50,,,1.65,> 12.2,0.812,1.71,0.769,1.96
O=C(C(=O)N1CC2C=CC1CC2)c1c[nH]c2ccccc12 (centres undefined),,> 100,,,,> 100,,> 100,,> 100,,> 100,,> 100,,> 100,,> 100,,> 100
Nc1c(C(=O)Nc2ccccc2)[n+]([O-])c2ccccc2[n+]1[O-],,34,,31.7,,,,28.6,,31.4,,> 100,,,,68,,22.6,,37.5
COc1ccc(/C=C\c2cc(OC)c(OC)c(OC)c2)cc1OC(=O)CCC(=O)O,,> 100,,,,> 100,,> 100,,> 100,,,,,0.157,> 100,,,,
Cc1cc(=O)oc2cc(OCc3c(F)cccc3Cl)ccc12,,34.1,,> 100,,,,> 100,,> 100,,,,> 100,,> 100,,35,,> 100
COc1ccccc1NC(=O)C1=C(C)NC(C)=C(C(=O)Nc2ccccc2OC)C1c1ccc(C)cc1,,> 100,,> 100,,,,> 100,,> 100,,> 100,,> 100,,,,> 100,,> 100
Cc1ccc(-c2cc(C3=CC(=O)C=CC3=O)n(-c3ccc(S(N)(=O)=O)cc3)n2)cc1,,,44.5,> 100,,,31.2,> 100,58.7,> 100,34.4,> 100,,,> 100,> 100,39.5,> 100,35.9,> 100
C#Cc1c(C(N)=O)ncn1C1OC(COP(=O)(OCc2ccc([N+](=O)[O-])o2)N(C)CCCCCl)C(O)C1O (centres undefined),28.1,> 100,15.1,63.5,,,22.4,> 100,48.3,> 100,74.2,> 100,,,28.5,> 100,> 100,> 100,16.2,> 100
O=Nc1ccc2ccccc2c1O,2.61,15.7,1.9,5.01,,,1.68,5.71,1.9,5.26,,,3.39,8.51,6.2,19.6,2.23,5.89,14.1,30.4

SMILES,GI50 (SNB-75 CNS) [µM],TGI (SNB-75 CNS) [µM],GI50 (OVCAR-3 ovarian) [µM],TGI (OVCAR-3 ovarian) [µM],GI50 (SR leukemia) [µM],TGI (SR leukemia) [µM],GI50 (LOX IMVI melanoma) [µM],TGI (LOX IMVI melanoma) [µM],GI50 (SN12C renal) [µM],TGI (SN12C renal) [µM],GI50 (K-562 leukemia) [µM],TGI (K-562 leukemia) [µM],GI50 (MALME-3M melanoma) [µM],TGI (MALME-3M melanoma) [µM],GI50 (A549 NSCLC) [µM],TGI (A549 NSCLC) [µM],GI50 (UACC-62 melanoma) [µM],TGI (UACC-62 melanoma) [µM],GI50 (OVCAR-5 ovarian) [µM],TGI (OVCAR-5 ovarian) [µM]
CC(=O)CCCCO,,> 100,,> 100,,,,> 100,,> 100,,> 100,,> 100,,> 100,,> 100,,> 100
COc1ccc2nc3cc(Cl)ccc3c(NCCCNCCC(C)O)c2c1 (centres undefined),0.568,1.93,0.368,1.68,0.156,1.74,0.356,1.46,,,,,0.714,2.21,0.422,2.12,,,0.331,2.46
COc1ccccc1C#Cc1ccccc1C#CCCCCCC#Cc1ccccc1C#Cc1ccccc1OC,1.81,14.3,93.5,> 100,,,98.1,> 100,> 100,> 100,31,> 100,> 100,> 100,> 100,> 100,> 100,> 100,> 100,> 100
C=CC1CC12C(=O)C1OC2(C)C2C(=O)c3c(O)ccc(O)c3C(=O)C12 (centres undefined),6.03,15.3,1.13,3.83,,,2.35,10.6,3.2,11.6,2.48,6.95,1.46,4.76,8.5,27.2,2.37,6.31,5.69,12
C/C(=N\N=C(/[Se])N1CC2CCC(CC2)C1)c1ccccn1,,1.11,,1.61,,,,0.64,,2.57,,0.575,,0.567,,3.03,,0.711,,2.51
COC(=O)[C@]12CC[C@@H](C)[C@H](C)[C@@H]1C1=CC[C@@H]3[C@@]4(C)C=C(O)C(=O)[C@@]5(C)COC(=C54)C[C@@]3(C)[C@]1(C)CC2,14.8,43.1,11.5,24.4,2.69,8.77,8.85,22.4,,,3.12,13.8,15,32.4,8.36,26,,,20.9,49.6
O=C(CC(=O)N1N=C(N2c3ccccc3Sc3ccccc32)CC1c1ccccc1)Nc1ccc(Cl)cc1 (centres undefined),,> 100,,> 100,,,,> 100,,> 100,,,,> 100,,> 100,,> 100,,> 100
Cc1ccc(SC2=CC(=O)c3nc4ccccc4c4ccnc2c34)cc1,39.8,> 100,23.2,> 54.7,,,28.5,> 100,66.6,> 100,35.5,> 100,46.7,> 69.5,> 79.8,> 100,43.3,> 100,> 79.9,> 100
CN(C)C(=O)c1cc2cnc(Nc3ccc(-c4csc5c(=O)cc(N6CCOCC6)oc45)cc3)nc2n1C1CCCC1,0.085,0.373,0.228,,0.101,> 80,0.112,0.353,0.21,14.6,0.285,> 100,,,0.213,> 100,0.129,0.367,,
CC#CC1/C(=C\C(=O)OC)CCCC1O (centres undefined),,> 100,,> 100,,> 100,,,,> 100,,> 100,,> 100,,> 100,,> 100,,> 100
O=C(Cc1cccc(OC(F)(F)F)c1)Nc1ccc(CCCCc2nnc(NC(=O)Cc3ccccn3)s2)nn1,11.1,38.6,17,> 100,33.7,> 100,25.9,> 100,18.5,> 100,16.9,> 100,28.6,> 100,,,19.9,> 100,> 100,> 100
c1ccc(-c2nc(-c3ccccc3)c(-c3ccccc3)[nH]2)cc1,,> 100,,> 100,,46.3,,> 100,,> 100,,,,> 100,,> 100,,> 100,,> 100
O=C1C(=O)N(c2ccc(Cl)cc2Cl)C(=O)C(=O)C1c1nc2ccccc2o1,,> 100,,> 100,,> 100,,,,> 100,,> 100,,> 100,,> 100,,> 100,,> 100
NC(N)=NNC(=O)CCCCCCCC(=O)NN=C(N)N,,,,,,,,> 100,,> 100,,> 100,,> 100,,> 100,,> 100,,> 100
COc1ccc(-c2ccc(-c3ccc(-c4ccc(C(=N)N)cc4)s3)s2)cc1OC,14.4,31,0.369,1.47,1.74,6,,,3.6,21.8,1.9,5.47,13,49.6,,,18.4,48,1.44,3.6
CC(=O)OC1(C)C(=O)OC1(C)C(C)=O (centres undefined),,> 100,,> 100,,,,> 100,,> 100,,> 100,,> 100,,> 100,,> 100,,> 100
Cc1c2c[n+](C(C)C)ccc2c(C)c2c1[nH]c1ccccc12,1.34,40.9,2.61,12.2,,,9.17,32.1,0.32,11.8,2.72,29,1.48,6.9,2.55,> 100,2.7,15,5.95,> 100
